US20240059703A1 (AMGEN INC., priority 2021, published 2024)

target: KRAS G12C (Homo sapiens (Human), UniProt P01116, C118A/G12C); assay: 2 h coupled exchange assay; assay type: biochemical; settings: Avg 2 h Coupled exchange IC50, 2 h compound pre-incubation
Protocol: The term “2 h coupled exchange assay” or “20 h coupled exchange assay” as used herein refers to the assay described in the Section entitled “BIOLOGICAL EVALUATION.”

Sequence of KRAS G12C (P01116 other isoform, or with tags, fused parts or gaps G12C/C118A): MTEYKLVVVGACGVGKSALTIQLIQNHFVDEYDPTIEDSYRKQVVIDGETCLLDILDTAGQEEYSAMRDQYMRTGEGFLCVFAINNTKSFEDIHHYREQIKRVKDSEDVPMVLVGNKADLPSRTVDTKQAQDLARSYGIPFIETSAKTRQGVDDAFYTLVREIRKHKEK

IC50 [nM]	Structure (SMILES)
606	C=CC(=O)N1CC2(CCN(c3nc4c(c(-c5cccc6cc[nH]c56)c3C#N)C[C@H]3C[C@@H]4C3(C)C)C2)C1 [Example 14-22, (1R,9R)-6-(1H-indol-7-yl)-10,10-dimethyl-4-(2-(2-propenoyl)-2,6-diazaspiro[3.4]octan-6-yl)-3-azatricyclo[7.1.1.0^2,7]undeca-2,4,6-triene-5-carbonitrile]
506	C=CC(=O)N1CC2(CCN(c3nc4c(c(-c5cccc6c5cnn6C)c3C#N)C[C@H]3C[C@@H]4C3(C)C)C2)C1 [Example 14-24, (1R,9R)-10,10-dimethyl-6-(1-methyl-1H-indazol-4-yl)-4-(2-(2-propenoyl)-2,6-diazaspiro[3.4]octan-6-yl)-3-azatricyclo[7.1.1.0^2,7]undeca-2,4,6-triene-5-carbonitrile]
164	C=CC(=O)N1CC2(CCN(c3nc4c(c(-c5ccc(F)c6sc(N)nc56)c3C)COC(C)(C)C4)C2)C1 [Example 14-27, 1-(6-(4-(2-amino-7-fluoro-1,3-benzothiazol-4-yl)-3,7,7-trimethyl-7,8-dihydro-5H-pyrano[4,3-b]pyridin-2-yl)-2,6-diazaspiro[3.4]octan-2-yl)-2-propen-1-one]

same assay, conditions: Avg 2 h Coupled exchange IC50, 2 h compound pre-incubation, SOS-mediated nucleotide exchange

IC50 [nM]	Structure (SMILES)
685	C=CC(=O)N1CC2(CCN(c3nc4c(c(-c5c(C)ccc6[nH]ncc56)c3COC)CCC(C)(C)C4)C2)C1 [Example 13-46, 1-(6-(3-(methoxymethyl)-7,7-dimethyl-4-(5-methyl-1H-indazol-4-yl)-5,6,7,8-tetrahydro-2-quinolinyl)-2,6-diazaspiro[3.4]octan-2-yl)-2-propen-1-one]
298	C=CC(=O)N1CC2(C1)CN(c1nc3c(c(-c4c(C)ccc5cnn(C)c45)c1C#N)COC(C)(C)C3)CC2(F)F [Example 13-47, 2-(8,8-difluoro-2-(2-propenoyl)-2,6-diazaspiro[3.4]octan-6-yl)-4-(1,6-dimethyl-1H-indazol-7-yl)-7,7-dimethyl-7,8-dihydro-5H-pyrano[4,3-b]pyridine-3-carbonitrile]
664	C=CC(=O)N1CC2(CCN(c3nc4c(c(-c5c(C)ccc6cnn(C)c56)c3C#N)COC(C)(C)C4)C2(C)C)C1 [Example 13-48, 4-(1,6-dimethyl-1H-indazol-7-yl)-2-(5,5-dimethyl-2-(2-propenoyl)-2,6-diazaspiro[3.4]octan-6-yl)-7,7-dimethyl-7,8-dihydro-5H-pyrano[4,3-b]pyridine-3-carbonitrile]
877	C=CC(=O)N1CC2(CCN(c3nc4c(c(-c5c(C)ccc6cnn(C)c56)c3C#N)COC4(C)C)C2)C1 [Example 13-55, 4-(1,6-dimethyl-1H-indazol-7-yl)-7,7-dimethyl-2-(2-(2-propenoyl)-2,6-diazaspiro[3.4]octan-6-yl)-5,7-dihydrofuro[3,4-b]pyridine-3-carbonitrile]
514	C=CC(=O)N1CC2(CCN(c3nc4c(c(-c5c(C)ccc6[nH]ncc56)c3C#N)CCC4(F)F)C2)C1 [Example 13-58, 7,7-difluoro-4-(5-methyl-1H-indazol-4-yl)-2-(2-(2-propenoyl)-2,6-diazaspiro[3.4]octan-6-yl)-6,7-dihydro-5H-cyclopenta[b]pyridine-3-carbonitrile]
332	C=CC(=O)N1CC2(CCN(c3nc4c(c(-c5c(C)ccc6cnn(C)c56)c3C#N)C[C@H]3C[C@@H]4C3(C)C)[C@@H]2CO)C1 [Example 13-61, (1R,9R)-6-(1,6-dimethyl-1H-indazol-7-yl)-4-((5S)-5-(hydroxymethyl)-2-(2-propenoyl)-2,6-diazaspiro[3.4]octan-6-yl)-10,10-dimethyl-3-azatricyclo[7.1.1.0^2,7]undeca-2,4,6-triene-5-carbonitrile]
334	C=CC(=O)N1CC2(CCN(c3nc4c(c(-c5c(C)ccc6cnn(C)c56)c3C#N)C[C@H]3C[C@@H]4C3(C)C)[C@H]2CO)C1 [Example 13-62, (1R,9R)-6-(1,6-dimethyl-1H-indazol-7-yl)-4-((5R)-5-(hydroxymethyl)-2-(2-propenoyl)-2,6-diazaspiro[3.4]octan-6-yl)-10,10-dimethyl-3-azatricyclo[7.1.1.0^2,7]undeca-2,4,6-triene-5-carbonitrile]
145	C=CC(=O)N1CC2(CCN(c3nc4c(c(-c5c(C)ccc6cnn(C)c56)c3C#N)CCC3CC43)C2CO)C1 (stereo not drawn) [Example 13-63]
1080	C=CC(=O)N1CC2(CCN(c3nc4c(c(-c5c(O)cccc5Cl)c3C#N)C[C@H]3C[C@@H]4C3)C2)C1 [Example 13-64, (1S,9S)-6-(2-chloro-6-hydroxyphenyl)-4-(2-(2-propenoyl)-2,6-diazaspiro[3.4]octan-6-yl)-3-azatricyclo[7.1.1.0^2,7]undeca-2,4,6-triene-5-carbonitrile]
291	C=CC(=O)N1CC2(CCN(c3nc4c(c(-c5cc(O)c(F)c6ccccc56)c3C#N)CC(C)(C)C4)C2)C1 [Example 13-70, 4-(4-fluoro-3-hydroxy-1-naphthalenyl)-6,6-dimethyl-2-(2-(2-propenoyl)-2,6-diazaspiro[3.4]octan-6-yl)-6,7-dihydro-5H-cyclopenta[b]pyridine-3-carbonitrile]
366	C=CC(=O)N1CC2(CCN(c3nc4c(c(-c5cc(O)c(F)c6ccccc56)c3C#N)COC(C)(C)C4)C2)C1 [Example 13-71, 4-(4-fluoro-3-hydroxy-1-naphthalenyl)-7,7-dimethyl-2-(2-(2-propenoyl)-2,6-diazaspiro[3.4]octan-6-yl)-7,8-dihydro-5H-pyrano[4,3-b]pyridine-3-carbonitrile]
564	C=CC(=O)N1CC2(CCN(c3nc4c(c(-c5cc(O)c(F)c6ccccc56)c3C#N)CCC3CC43)C2)C1 [Example 13-72, (6aR,7aR)-4-(4-fluoro-3-hydroxy-1-naphthalenyl)-2-(2-(2-propenoyl)-2,6-diazaspiro[3.4]octan-6-yl)-6,6a,7,7a-tetrahydro-5H-cyclopropa[h]quinoline-3-carbonitrile|(6aS,7aS)-4-(4-fluoro-3-hydroxy-1-naphthalenyl)-2-(2-(2-propenoyl)-2,6-diazaspiro[3.4]octan-6-yl)-6,6a,7,7a-tetrahydro-5H-cyclopropa[h]quinoline-3-carbonitrile]
316	CN(C)C/C=C/C(=O)N1CC2(CCN(c3nc4c(c(-c5cc(O)cc6ccccc56)c3C#N)CCC3CC43)C2)C1 [Example 13-85, (6aR,7aS)-2-(2-((2E)-4-(dimethylamino)-2-butenoyl)-2,6-diazaspiro[3.4]octan-6-yl)-4-(3-hydroxy-1-naphthalenyl)-6,6a,7,7a-tetrahydro-5H-cyclopropa[h]quinoline-3-carbontirile|(6aS,7aR)-2-(2-((2E)-4-(dimethylamino)-2-butenoyl)-2,6-diazaspiro[3.4]octan-6-yl)-4-(3-hydroxy-1-naphthalenyl)-6,6a,7,7a-tetrahydro-5H-cyclopropa[h]quinoline-3-carbonitrile]
702	C=CC(=O)N1CC2(CCN(c3nc4c(c(-c5c(C)ccc6[nH]ncc56)c3C#N)OC3(COC3)C4)C2)C1 [Example 13-107, 7-(5-methyl-1H-indazol-4-yl)-5-(2-(2-propenoyl)-2,6-diazaspiro[3.4]octan-6-yl)-3H-spiro[furo[3,2-b]pyridin-2,3′-oxetane]-6-carbonitrile]
1110	C=CC(=O)N1CC2(CCN(c3nc4c(c(-c5cnccc5C)c3C#N)C[C@H]3C[C@@H]4C3(C)C)C2)C1 [Example 13-109, (1R,9R)-10,10-dimethyl-6-(4-methyl-3-pyridinyl)-4-(2-(2-propenoyl)-2,6-diazaspiro[3.4]octan-6-yl)-3-azatricyclo[7.1.1.0^2,7]undeca-2,4,6-triene-5-carbonitrile]
294	C=CC(=O)N1CC2(CCN(c3nc4c(c(-c5c(C)ccc6cnn(C)c56)c3C#N)COC(C3CC3)C4)C2)C1 [Example 13-111, (7R)-7-cyclopropyl-4-(1,6-dimethyl-1H-indazol-7-yl)-2-(2-(2-propenoyl)-2,6-diazaspiro[3.4]octan-6-yl)-7,8-dihydro-5H-pyrano[4,3-b]pyridine-3-carbonitrile|(7S)-7-cyclopropyl-4-(1,6-dimethyl-1H-indazol-7-yl)-2-(2-(2-propenoyl)-2,6-diazaspiro[3.4]octan-6-yl)-7,8-dihydro-5H-pyrano[4,3-b]pyridine-3-carbonitrile]
101	C=CC(=O)N1CC2(CCN(c3nc4c(c(-c5c(C)ccc6cnn(C)c56)c3C#N)[C@H]3C[C@@H](C4)C3)C2)C1 [Example 13-131, (1S,9S)-3-(1,6-dimethyl-1H-indazol-7-yl)-5-(2-(2-propenoyl)-2,6-diazaspiro[3.4]octan-6-yl)-6-azatricyclo[7.1.1.0^2,7]undeca-2,4,6-triene-4-carbonitrile]
641	C=CC(=O)N1CC2(CCN(c3nc4c(c(-c5c(C)ccc6cnn(C)c56)c3C#N)CNC(C)(C)C4)C2)C1 [Example 13-138, 4-(1,6-dimethyl-1H-indazol-7-yl)-7,7-dimethyl-2-(2-(2-propenoyl)-2,6-diazaspiro[3.4]octan-6-yl)-5,6,7,8-tetrahydro-1,6-naphthyridine-3-carbonitrile]
842	C=CC(=O)N1CC2(CCN(c3nc4c(c(-c5c(C)ccc6cnn(C)c56)c3C#N)CO[C@H](C)C4)C2)C1 [Example 13-141, (7)-2-(2-acryloyl-2,6-diazaspiro[3.4]octan-6-yl)-4-(1,6-dimethyl-1H-indazol-7-yl)-7-methyl-7,8-dihydro-5H-pyrano[4,3-b]pyridine-3-carbonitrile]
620	C=CC(=O)N1CC2(CCN(c3nc4c(c(-c5c(C)ccc6cnn(C)c56)c3C#N)CO[C@@H](C)C4)C2)C1 [Example 13-142, (7)-2-(2-acryloyl-2,6-diazaspiro[3.4]octan-6-yl)-4-(1,6-dimethyl-1H-indazol-7-yl)-7-methyl-7,8-dihydro-5H-pyrano[4,3-b]pyridine-3-carbonitrile]
588	C=CC(=O)N1CC2(CCN(c3nc4ccccc4c(-c4c(C)ccc5[nH]nc(Cl)c45)c3C#N)C2)C1 [Example 14-3, 4-(3-chloro-5-methyl-1H-indazol-4-yl)-2-(2-(2-propenoyl)-2,6-diazaspiro[3.4]octan-6-yl)-3-quinolinecarbonitrile]
